# Measured values: PubChem BioAssay (NCI)
# Several values for one entry are separate records, joined by “and”; a condition that tells them apart may be missing. Identical values can stand only once.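 96-well plates; 48 h exposure; 5 concentrations. Endpoints by linear interpolation between flanking doses. Not reached: highest tested concentration assigned. GI50 marks 50% less growth. At the TGI there is no net growth.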
# Tests used:
# Test in all cases: growth of human tumour cells (NCI), 48 h
# [1] = system: SW-620 colon
# [2] = system: RPMI-8226 leukemia
# [3] = system: OVCAR-4 ovarian
# [4] = system: NCI-H460 lung
# [5] = system: SNB-19 CNS
# [6] = system: HCT-116 colon
# [7] = system: MDA-MB-231 breast
# [8] = system: OVCAR-3 ovarian
# [9] = system: SN12C renal
# [10] = system: HL-60(TB) leukemia
# [11] = system: SF-539 CNS
Compound,TGI [1],TGI [2],TGI [3],TGI [4],TGI [5],TGI [6],TGI [7],TGI [8],TGI [9],TGI [10],TGI [11],GI50 [7]
Cc1ccc2c(c1)-c1nc(N)c(C#N)c(-c3ccccc3)c1CCS2(=O)=O,> 100 µM,> 100 µM,41.8 µM,> 100 µM,67.7 µM,> 100 µM,> 100 µM,> 100 µM,> 100 µM,–,–,–
COc1ccccc1C(=O)c1c(NCc2ccccc2)c(=O)c1=O,37.8 µM,> 100 µM,> 100 µM,> 100 µM,> 100 µM,> 100 µM,> 100 µM,> 100 µM,> 100 µM,> 100 µM,–,–
CCN1CCC(O)(c2ccc(Cl)cc2)C(C(=O)c2ccc(Cl)cc2)C1 (stereo not given),> 100 µM,64.2 µM,> 100 µM,> 100 µM,> 100 µM,> 100 µM,–,> 100 µM,> 100 µM,> 100 µM,> 100 µM,–
COI1NC(=O)c2ccccc21,> 100 µM,> 100 µM,> 100 µM,–,> 100 µM,> 100 µM,> 100 µM,> 100 µM,> 100 µM,> 100 µM,–,–
CCN(CC)C(=O)C(C)n1cc(C)c(=O)[nH]c1=O (stereo not given),> 100 µM,> 100 µM,> 100 µM,> 100 µM,> 100 µM,> 100 µM,–,> 100 µM,> 100 µM,> 100 µM,> 100 µM,–
Cc1nc2c(=O)n(C)ncc2[nH]1,> 100 µM,> 100 µM,–,> 100 µM,> 100 µM,> 100 µM,> 100 µM,> 100 µM,> 100 µM,> 100 µM,> 100 µM,–
CCC(=O)Nc1ccc(N2C(=O)C(Cl)C2c2ccc(SC)cc2)cc1 (stereo not given),> 100 µM,> 100 µM,> 100 µM,> 100 µM,> 100 µM,> 100 µM,–,> 100 µM,> 100 µM,> 100 µM,> 100 µM,–
COC(=O)C1OC(O[C@H]2CC[C@]3(C)[C@H]4CC=C5[C@@H]6CC(C)(C)CC[C@]6(C(=O)OC6OCC(O)C(O)C6OC6OC(C)C(OC7OCC(O)C(O)C7O)C(O)C6O)CC[C@@]5(C)[C@]4(C)CC[C@H]3C2(C)C)C(O)C(O)C1O (stereo not given in full),39.5 µM and 48.7 µM,> 100 µM and 42 µM,34.3 µM and 29.8 µM,> 100 µM and 43.8 µM,31.2 µM and 27.2 µM,33.1 µM and 37.5 µM,20.1 µM and 12.6 µM,97.6 µM and > 100 µM,27.1 µM and 31.2 µM,41.3 µM and 35.1 µM,–,7.51 µM and 2.75 µM
CN(C)c1nc(Cl)c2c(-c3ccccc3)c(-c3ccccc3)oc2n1,> 100 µM,60.8 µM,> 100 µM,–,> 100 µM,> 100 µM,> 100 µM,–,> 100 µM,36 µM,> 100 µM,–
C[C@@H]1CC[C@@H]2[C@@H](C1)O[C@@H]([C@H](C)OCc1ccccc1)SC2(C)C,36.3 µM,35.1 µM,> 100 µM,53.5 µM,36.8 µM,29.3 µM,40.1 µM,–,42.4 µM,–,> 100 µM,–
CCOC(=O)c1c(N2CCOCC2)[nH]c(=O)c(C(c2ccco2)c2c(O)c(C(=O)OCC)c(N3CCOCC3)[nH]c2=O)c1O,> 100 µM,> 100 µM,> 100 µM,> 100 µM,> 100 µM,> 100 µM,> 100 µM,> 100 µM,> 100 µM,–,> 100 µM,–
Nc1nc2c3nc(Nc4ccccc4)sc3nc(=O)n2c2sc(Nc3ccccc3)nc12,> 100 µM,> 100 µM,> 100 µM,–,> 100 µM,> 100 µM,–,–,> 100 µM,> 100 µM,> 100 µM,–
COC(=O)c1c2cccccc-2c(Cc2c3cccccc-3c(C(=O)OC)c2O)c1O,> 100 µM,> 100 µM,> 100 µM,> 100 µM,> 100 µM,> 100 µM,–,> 100 µM,> 100 µM,> 100 µM,> 100 µM,–
COc1cc(Cc2nccc3cc(OC)c(OC)cc23)c(N=NN(C)C)cc1OC,37.9 µM,39.7 µM,70.7 µM,22.3 µM,85.2 µM,17.7 µM,36.6 µM,73.9 µM,41.3 µM,–,–,–
Cc1ccc(S(=O)(=O)NNCNC(=O)c2ccccc2)cc1,> 100 µM,> 100 µM,> 100 µM,–,> 100 µM,> 100 µM,> 100 µM,> 100 µM,> 100 µM,48.2 µM,> 100 µM,–
O=C(NNC(=S)NC1CCCCC1)c1csc(NC(=S)NC2CCCCC2)n1,19.5 µM,46.7 µM,–,–,44.8 µM,16.5 µM,45.1 µM,16.9 µM,25.9 µM,> 100 µM,15.6 µM,–
COc1cc(CNNC(N)=S)cc(OC)c1OC,> 100 µM,> 100 µM,–,> 100 µM,> 100 µM,> 100 µM,> 100 µM,> 100 µM,> 100 µM,> 100 µM,> 100 µM,–
OC(c1cc(C23CC4CC(CC(C4)C2)C3)nc2c(Cl)cc(Cl)cc12)C1CCCCN1 (stereo not given),–,–,–,3.13 µM,–,2.7 µM,2.78 µM,3.3 µM,3.13 µM,3.59 µM,3.22 µM,–
